# Source: patent publication US8822526B2, “Synergistic pharmaceutical combination for the treatment of cancer” (Piramal Enterprises Limited, priority 2007, dated 2014)
# Values joined by “and” are separate entries in the source; they are usually repeats but may differ in a detail not shown here. Equal entries are not always repeated. Where two headings read alike, the source gives them in different places.
# What was measured:
# [1] = system: human non-small cell lung carcinoma H-460; assay: Annexin V-FITC staining (detection of early apoptosis); format: cell-based; settings: doxorubicin 100 nM 24 hours; compound A 1200 nM 96 hours; combination doxorubicin 24 hours followed by compound A 96 hours
# Method: Annexin V-FITC is a sensitive probe for identifying apoptotic cells. During early apoptosis the membrane phospholipid phosphotidyl serine (PS) is translocated from the inner to the outer leaflet of the plasma membrane, thereby exposing PS to the external cellular environment. Annexin V is a 35-36 kDa Calcium phospholipid binding protein that has a high affinity for PS and binds to cells with exposed PS. […] The human non-small cell lung carcinoma H-460 was seeded in 25 mm^3 tissue culture flasks. […] The control cells were left untreated for 120 hours. Medium containing floating cells were collected and pooled with the adherent cells after harvesting with trypsin at the different time points. The cells were washed twice with cold PBS with centrifugation at 1000 rpm for 10 minutes. The cell pellet was resuspended in 1× binding buffer (10 mm HEPES pH 7.4, 140 mM NaCl, 2.5 mM CaCl2) at a concentration of 1×10^6 cells/mL. 100 μl of the solution (1×10^5 cells) were stained with Annexin V-FITC and Propidium Iodide. The cells were incubated for 15 minutes at room temperature in the dark and the sample was analysed by flow cytometry. A Becton Dickinson FACS Calibur flow cytometer was used for these studies in accordance with the manufacturer's recommendations. The argon ion laser set at 488 nm was used as an excitation source. […] If the cells even after the termination of compound exposure continue to go into apoptosis, they would stain positive for annexin. The cells once in early apoptosis are committed to programmed cell death and at a point of no return.
# [2] = system: human non-small cell lung carcinoma H-460 cells; assay: In vitro cytotoxicity assay (MTS)
# Method: The cytotoxicity assay used was MTS (3-(4,5-dimethylthiazol-2-yl)-5-(3-carboxymethoxyphenyl)-2-(4-sulfophenyl)-2H-tetrazolium, inner salt) assay. The human non-small cell lung carcinoma H-460 cells were seeded at a density of 1500 cells/well in 180 μL of culture medium in 96-well plate and incubated overnight to allow the cells to adhere. Varying concentrations of the drugs contained in the combination were added to the wells and incubated for an appropriate period of time in humidified 5% CO2 incubator at 37° C. in case of a single drug exposure. […] Control wells were treated with a vehicle. At the end of the incubation period, the medium was removed from the wells and 20 μL of MTS (2 mg/mL in phosphate buffer saline, pH 6-6.5 and filter sterilized) and 1 μL of phenazine methosulfate (PMS, 3 mM in phosphate buffered saline, pH 7.3 and filter sterilized) was added to each well and the total volume was adjusted to 200 μL with complete medium. The plate was incubated for 2-4 hours in humidified 5% CO2 incubator at 37° C.
# (§1) After completion of the drugs treatment i.e. at the end of 96 hours the plates were processed for MTS viability assay and the percent cytotoxicity was calculated as compared to control.
# as §1
# (§2) The human non-small cell lung carcinoma H-460 cells were seeded at a density of 1500 cells/well. […] After completion of the drugs treatment i.e. at the end of 120 hours the plates were processed for MTS viability assay and the percent cytotoxicity was calculated as compared to control.
# as §2
# The human non-small cell lung carcinoma H-460 cells were seeded at a density of 1500 cells/well. […] After completion of the drugs treatment i.e. at the end of 120 hours, the plates were processed for MTS viability assay and the percent cytotoxicity was calculated as compared to control.
# (§3) After completion of the drugs treatment i.e. at the end of 48 hours the plates were processed for MTS viability assay and the percent cytotoxicity was calculated as compared to control.
# The plates were processed for MTS viability assay and the percent cytotoxicity was calculated as compared to control.
# as §3
# The human non-small cell lung carcinoma H-460 cells were seeded at a density of 1500 cells/well. As per Table 16A the cells were first treated with either of the drugs alone i.e. with doxorubicin or flavopiridol alone. Doxorubicin treatment was for the first 24 hours followed by complete medium for 96 hours while in case of flavopiridol, the first 24 hours was in complete medium followed by flavopiridol for the next 96 hours. […] After completion of the drugs treatment i.e. at the end of 120 hours the plates were processed for MTS viability assay and the percent cytotoxicity was calculated as compared to control.
# As per Table 16B the cells were first treated with either of the drugs alone i.e. with doxorubicin or flavopiridol alone. Flavopiridol treatment was for the first 96 hours followed by complete medium for 24 hours while in case of doxorubicin, the first 96 hours was in complete medium followed by doxorubicin for 24 hours. […] After completion of the drugs treatment i.e. at the end of 120 hours, the plates were processed for MTS viability assay and the percent cytotoxicity was calculated as compared to control.
# The human non-small cell lung carcinoma H-460 cells were seeded at a density of 1500 cells/well.
compound,measurement,setting,value
"CN1CC[C@@H](c2c(O)cc(O)c3c(=O)cc(-c4ccccc4Cl)oc23)[C@@H]1CO.Cl [Compound A, (+)-trans-2-(2-Chloro-phenyl)-5,7-dihydroxy-8-(2-hydroxymethyl-1-methyl-pyrrolidin-3-yl)-chromen-4-one hydrochloride]",Annexin + ve (%) (cells in early apoptosis),[1],38.5%
same,Annexin and PI + ve (%) (cells in early to late apoptosis),[1],8.2%
same,Live cells (%) (healthy cells),[1],53%
same,PI + ve (%) (dead cells),[1],0.3%
same,IC30 concentration after 48 hours treatment,"[2]; H-460 cells, 48 hours treatment, hydrochloride",800 nM and ~700 nM
same,IC50,"[2]; Homo sapiens, NCI-H460, 48 h, read-out: IC50 concentration after 48 hours treatment, H-460 cells, 48 hours treatment",1200 nM
same,cytotoxicity at 0.8 µM,"[2]; Homo sapiens, NCI-H460, 120 h, compound A 800 nM alone for 120 hours",24%
same,cytotoxicity at 1.2 µM,"[2]; Homo sapiens, NCI-H460, 120 h, compound A 1200 nM alone for 120 hours",44%
same,% Cytotoxicity,"[2]; human, 45 h, 1000 nM",35%
same,% Cytotoxicity,"[2]; human, 72 h, 800 nM",17%
same,% Cytotoxicity,"[2]; human, 72 h, 1200 nM",36%
same,% Cytotoxicity,"[2]; human, 96 h, 800 nM",19%
same,IC50,"[2]; read-out: IC50 concentration after 48 hours treatment, H-460 cells, 48 hours treatment, hydrochloride",~1000 nM
COc1cccc2c1C(=O)c1c(O)c3c(c(O)c1C2=O)C[C@@](O)(C(=O)CO)C[C@@H]3O[C@H]1C[C@H](N)[C@H](O)[C@H](C)O1 [Doxorubicin],Annexin + ve (%) (cells in early apoptosis),[1],30.4%
same,Annexin and PI + ve (%) (cells in early to late apoptosis),[1],8.6%
same,Live cells (%) (healthy cells),[1],60%
same,PI + ve (%) (dead cells),[1],1%
same,% Cytotoxicity,[2]; Doxorubicin 30 nM alone for 120 hours,2%
same,% Cytotoxicity,"[2]; Doxorubicin 30 nM first 24 hours, then complete medium 96 hours, MTS at 120 hours",0%
same,% Cytotoxicity,"[2]; Doxorubicin 70 nM first 24 hours, then complete medium 96 hours, MTS at 120 hours",14% and 12%
same,% Cytotoxicity,[2]; Doxorubicin 100 nM alone for 120 hours,24%
same,% Cytotoxicity,"[2]; Doxorubicin 100 nM first 24 hours, then complete medium 72 hours, MTS at 96 hours",16%
same,% Cytotoxicity,"[2]; Doxorubicin 100 nM first 24 hours, then complete medium 96 hours, MTS at 120 hours",8%
same,% Cytotoxicity,"[2]; Doxorubicin 100 nM first 24 hours, then complete medium 96 hours, MTS at 120 hours, listed as Doxo.",16% and 9%
same,% Cytotoxicity,"[2]; Doxorubicin 200 nM first 24 hours, then complete medium 96 hours, MTS at 120 hours",17%
same,cytotoxicity at 0.03 µM,"[2]; Homo sapiens, NCI-H460, 120 h, Doxorubicin 30 nM alone for 120 hours",3%
same,cytotoxicity at 0.07 µM,"[2]; Homo sapiens, NCI-H460, 120 h, Doxorubicin 70 nM alone for 120 hours",28%
same,cytotoxicity at 0.1 µM,"[2]; Homo sapiens, NCI-H460, 120 h, Doxorubicin 100 nM alone for 120 hours",19%
same,cytotoxicity at 0.2 µM,"[2]; Homo sapiens, NCI-H460, 120 h, Doxorubicin 200 nM alone for 120 hours",48%
